In data set [1] the test system is MDA-MB-231 and OVCAR5 cells. Nature of the data set: PI-based cell-cycle analysis by flow cytometry. On the set-up: species or system human. The conditions noted are these: MDA-MB-231 (2 μM) and OVCAR5 (0.5 μM) cells; 24 h. As to the method: MDA-MB-231 cells were treated with 2 μM LY2835219 or ZC-22, and OVCAR5 cells were treated with 0.5 μM LY2835219 or ZC-22 for 24 h. After washing in PBS, cells were fixed with 70% ethanol on ice for 2 h, followed by centrifugation at 300× g—for 20 min at 4 °C, and then subjected to a propidium iodide (PI, BD Biosciences, Franklin Lakes, NJ, USA) based cell-cycle analysis according to the manufacturer’s protocols. Cell-cycle distribution was analyzed by flow cytometry. Each experiment was performed in triplicates.
Figure 3 ZC-22 inhibits CDK4/6 and PARP to induce cell-cycle arrest, DNA damage, and apoptosis in breast and ovarian cancer cells. […] The levels of CDK4/6 and p-Rb/Rb were determined by Western blot (A). Cell-cycle distribution was analyzed by flow cytometry (B). […] (D,E) Representative pictures (left) and quantification of percentage (right) of γH2A.X-positive cells in MDA-MB-231 cells treated with 2 μM OLA or ZC-22 for 24 h (D), or OVCAR5 cells treated with 0.5 μM OLA or ZC-22 for 24 h (E). Values are means ± SD, n = 3. * p < 0.05, ** p < 0.01, and *** p < 0.001 for comparisons with the DMSO-treated group. p value was calculated using an unpaired t-test. (F,G) Representative pictures (F) and quantification of percentage (G) of apoptotic cells in MDA-MB-231 cells treated with 2 μM LY-2, OLA, or ZC-22 for 48 h or in OVCAR5 cells treated with 0.5 μM LY-2, OLA or ZC-22 for 48 h. […]

The nature of data set [2]: Body weight and histological analysis (H&E) of major organs, MDA-MB-231 tumor-bearing mice. Format: in vivo. The conditions noted are these: ZC-22 monotherapy 50 mg/kg ip. The procedure: To detect the safety of ZC-22 monotherapy or combination therapy, sections of mouse heart, liver, spleen, lung, and kidney tissues were stained with hematoxylin and eosin (H&E) and then analyzed by microscopy.
Figure S3. ZC-22 inhibits signaling of CDK4/6 and PARP in xenograft tumors of breast cancer. Female NOD-SCID mice were injected subcutaneously with 2×10^6 of MDA-MB-231 cells and treated ip daily with 50 mg/kg of Olaparib (OLA) or LY2835219 (LY-2) alone or together (OLA+LY-2), or ZC-22 starting on day 10 after injection of cells when tumors were 50–80 mm3 in size. Representative pictures of (A) and quantification of percentage of (B) phosphorylated Rb (p-Rb)-positive cells in immunohistochemical staining of the MDA-MB-231 xenograft tumor tissues. Values are means ± SEM, n = 6. ns, not significant, and *** p < 0.001 in the unpaired t-test. (C) Western blot analysis of p-Rb (Left) and PAR (Right) in the MDA-MB-231 xenograft tumor tissues with indicated treatment.
(D) Body weights of MDA-MB-231 tumor burden mice with indicated treatment. Values are means ± SD, n = 6. ns, not significant in unpaired t-test. (E) H&E staining of the heart, liver, spleen, lung, and kidney tissues of tumor-bearing mice treated with DMSO or ZC-22, showing the lack of toxicity of ZC-22 treatment.
Figure S4. ZC-22 increases the sensitivity of breast and ovarian cancer cells to cisplatin. […]

As for `Cc1nc2c(F)cc(-c3nc(Nc4ccc(N5CCN(C(=O)c6cc(Cc7n[nH]c(=O)c8ccccc78)ccc6F)CC5)cn4)ncc3F)cc2n1C(C)C` [ZC-22, 4-(4-fluoro-3-(4-(6-((5-fluoro-4-(4-fluoro-1-isopropyl-2-methyl-1H-benzo[d]imidazole-6-yl)pyrimidin-2-yl)amino)pyridin-3-yl)piperazine-1-carbonyl)benzyl)phthalazin-1(2H)-one], the cell-cycle distribution result in data set [1] was “dramatically arrested cell cycle at the G1/S check-point”. In addition, in data set [2], the “toxicity (body weight, histology of major organs)” value is reported as “no obvious toxicity”.

The values above are taken from publication PMC8911181, “A Novel CDK4/6 and PARP Dual Inhibitor ZC-22 Effectively Suppresses Tumor Growth and Improves the Response to Cisplatin Treatment in Breast and Ovarian Cancer” (International Journal of Molecular Sciences, 2022).
